Molecules are shown by their SMILES. “Also recorded” adds a separate entry of the source. Peptide text beside a SMILES is read from it.

In experiment [1] the test system is MIHR mutant (n5-23, n5-13) isolated female gonads. Kind of experiment: Gonad spawning assay, MIHR mutant isolated gonads. Details: species or system Clytia hemisphaerica. Particulars: isolated MIHR mutant gonads, 4 mM Br-cAMP, washed after 5 minutes. Here is the method:
We performed a series of oocyte maturation and spawning assays, comparing the responses of wild-type and MIHR mutant isolated gonads and oocytes to different stimuli (Fig 4).
Sexually mature MIHR mutant medusae from colonies n5-13 and n5-23 and wild-type medusae were cultured on the same day–night cycle. Individual gonads were dissected in the evening after afternoon spawning. To test the light response, one group of each was transferred to 100 μL MFSW in wells of 96-well plastic plates, covered overnight, and re-exposed to white light the following day. To test responses to MIH and cAMP, other groups of dissected gonads were cultured overnight in constant light, then transferred to 96-well plastic plates for two hours. MIH was added to wells as an equal volume of 200 nM WPRPamide (GenScript) stock in MFSW was added to give a final concentration of 100 nM. Alternatively, a stock of 20 mM bromo adenosine 3′,5′cyclic monophosphate (Br-cAMP–Fluka; Sigma Aldrich) in distilled water was added to give a final concentration of 4 mM. Gonads were washed after 5 minutes incubation in Br-cAMP. Oocyte maturation was scored after 30 minutes as germinal vesicle breakdown (GVBD), i.e., visible dissolution of the oocyte nuclear membrane upon entry into M phase, which in all cases was followed by spawning about 1 hour later.
(§1) Supplementary file pbio.3000614.s013.xlsx: S3 Data Numerical data corresponding to Fig 4A and 4C. The first tab collects all the raw data from 3 independent gonad spawning assays. Information corresponding to the Fisher exact tests is also shown. […] The means and standard deviations were used to prepare the graph in Fig 4C. Information corresponding to the Fisher exact tests is also shown. (XLSX) Click here for additional data file.

Experiment [2] concerns hydrozoan oocytes. Particulars: cell-permeable analogue of cAMP; ref [3],[21]; cited from earlier work. The text has this:
We performed a series of oocyte maturation and spawning assays, comparing the responses of wild-type and MIHR mutant isolated gonads and oocytes to different stimuli (Fig 4). […] I ...

In experiment [3] the test system is fully grown oocytes isolated from WT gonads. The experiment can be described thus: Oocyte maturation assay, wild-type isolated oocytes (GVBD). The format is cell-based, Clytia hemisphaerica.
Text: (§2) Fig 4 Oocyte maturation failure in MIHR mutant medusae. Oocyte maturation assays performed using isolated gonads (A, B) or isolated oocytes (C) from MIHR mutant jellyfish compared to WT. In A and C, bar heights represent mean percentages of 3 independent experiments and error bars show standard deviations. Total gonad or oocyte numbers for each treatment are indicated in gray. (A) Spawning response of isolated gonads from WT and n5-23 female medusae. Three treatments were compared as indicated above each panel: Light: light stimulation after incubation in the dark; MIH: treatment of light-maintained gonads with 100 nM WPRPamide; cAMP: treatment of light-maintained gonads with 4 mM Br-cAMP. […] Full datasets from three independent experiments are available in S3 Data. (B) Light microscope images illustrating gonads from an equivalent experiment performed with n5-13 female MIHR mutant medusae 120 minutes after the indicated treatments. Scale bar: 500 μm. […] Full datasets from 3 independent experiments are available in S3 Data. Br-cAMP, bromoadenosine 3′,5′-cyclic monophosphate; cAMP, cyclic adenosine monophosphate; KO, knockout; MIH, maturation-inducing hormone; MIHR, MIH receptor; WT, wild-type.
(§3) Fully grown oocytes were isolated manually from dissected gonads of wild-type and MIHR KO mutant jellyfish prepared as above. Maturation assays were performed in wells of 96-well plates or small plastic petri dishes lined with 2% agarose in MFSW. Spontaneous maturation occurs at a low frequency in control oocytes. To test MIH-induced maturation, 10 μL WPRPamide from 1 μM solution in MFSW was added to a final concentration of 100 nM. In some experiments, Br-cAMP from a 20 mM stock in H2O was used at a final concentration of 4 mM. GVBD was scored at 30 minutes, every 5 minutes, depending on experiments.
as §1

The subject of experiment [4] is fully grown oocytes isolated from MIHR mutant (n5-23) gonads. The experiment can be described thus: Oocyte maturation assay, MIHR mutant isolated oocytes (GVBD). The format is cell-based, Clytia hemisphaerica.
Text: as §2, §3, §1

Experiment [5] has as its system Clytia MIHR. Kind of experiment: Dose–response curves of Clytia MIHR, luminescence (CHO-K1 cells, Gα-16, GFP-apoaequorin). The format is cell-based, Clytia hemisphaerica. Details: key to Span (best-fit value) / Bottom (best-fit value): % activation, normalized to fitted upper plateau (100%). Particulars: for EC50: four-parameter fit, variable slope, triplicate; for HillSlope / LogEC50: best-fit value; for Bottom / Span / Top: best-fit value (luminescence); for Bottom (best-fit value) / HillSlope (best-fit value) / LogEC50 (best-fit value) / Span (best-fit value): log(agonist) vs. response, variable slope (four parameters), fit of third dataset. Here is the method: The Clytia MIH amidated peptides are produced from two precursor genes Che-pp4 (generating multiple copies of WPRAamide, WPRYamide, and WPRPamide) and Che-pp1 (multiple copies of WPRPamide and RPRGamide).
(§4) Cell culture GPCR ligand response assays were performed as described. Briefly, CHO-K1 cells were cultured in Ham’s F12 Nut Mix medium (Thermo Fisher Scientific) with 10% foetal bovine serum. Cells were seeded in 96-well plates at approximately 10,000 cells/well and transfected the following day with pcDNA3.1(+) plasmids encoding each of the 16 candidate Clytia GPCRs (S2 Text), the promiscuous Gα-16 protein [65], and a reporter construct GFP-apoaequorin [66] (60 ng each) using the transfection reagent TurboFect (Thermo Fisher Scientific). After 2 days of expression, the medium was removed and replaced with Hank’s balanced salt solution (HBSS) supplemented with 1.8 mM Ca2+, 10 mM glucose, and […] coelenterazine h (Promega, Madison, WI). After incubation at 37 °C for 2 hours, cells were tested by adding synthetic peptides (GenScript) in HBSS supplemented with 1.8 mM Ca2^+ and 10 mM glucose. A list of all synthetic peptides used is provided in S2 Table. Luminescence was recorded for 45 seconds in a plate reader (BioTek Synergy Mx or Synergy H4; BioTek, Winooski, VT). Data were integrated over the 45-second measurement period and recorded as technical triplicates in each case. Data were normalized using the response of Platynereis FLamide receptor to 1 μM AKYFL-NH2 [28]. Dose–response curves were obtained using concentrations between 0.01 nM and 100 μM for each peptide. Data for dose–response curves were recorded in triplicate for each concentration and the experiment was repeated independently 3 times. Dose–response curves were fitted with a four-parameter curve using Prism 6 (GraphPad, La Jolla, CA) and were normalized to the calculated upper plateau values (100% activation).
Supplementary file pbio.3000614.s012.xlsx: S2 Data Numerical data corresponding to Fig 1C. The first three tabs show statistical values obtained using Prism 6 software (GraphPad, La Jolla, CA) from the raw luminescence values for 3 independent dose–response experiments. The raw luminescence values are shown, as well as the values normalized with respect to the maximum. […] MIH, maturation-inducing hormone. (XLSX) Click here for additional data file.

The test system of experiment [6] is Clytia MIHR. Kind of experiment: GPCR deorphanization assay, luminescence response to peptides at 1 μM (CHO-K1 cells, Gα-16, GFP-apoaequorin). The format is cell-based, Clytia hemisphaerica. Particulars: peptide 1E-6M, normalised to Platynereis FLamide receptor + 1 μM AKYFL-NH2, n = 3.
Text: We used a cell culture–based GPCR deorphanization assay to identify the MIH receptor from our candidate shortlist. cDNAs for each candidate were transfected into Chinese Hamster ovary K1 (CHO-K1) cells along with the promiscuous Gα protein Gα-16, and an aequorin-GFP luminescence reporter that measures Ca^2+ mobilization downstream of this heterologous Gα protein [27, 28]. We first screened the 16 candidate Clytia GPCRs against a mixture of 33 synthetic amidated peptides (including MIHs) predicted to be generated from previously identified putative Clytia neuropeptide precursors and one additional one identified from transcriptome data. Given our imperfect knowledge of pro-peptide processing in cnidarians, some of the synthetic peptides may not correspond to endogenous peptides. Only one of the 16 GPCRs was activated by this peptide mixture. This receptor responded well to all 4 synthetic Clytia MIH tetrapeptides, as well as to related Cladonema MIH peptides that can also activate Clytia oocyte maturation, but not to other Clytia peptide mixtures or poorly active MIH penta-/tripeptides. We termed this Clytia GPCR the Maturation Inducing Hormone Receptor (MIHR). The activity of individual peptides at 1 μM to stimulate the MIHR closely matched their in vivo ability to induce oocyte maturation (Fig 1B).
as §4
Supplementary file pbio.3000614.s011.xlsx: S1 Data Numerical data corresponding to Fig 1B. Raw luminescence values obtained in triplicate for each of the neuropeptide combinations tested against the MIHR in the deorphanization assay are provided. In the right-hand table, the raw luminescence values obtained in quadruple for the positive and negative controls are provided. In the lower table, means and standard errors of the mean of the luminescence values obtained for each neuropeptide combination and controls are also shown, as well as the values normalized to the positive control, which were used to prepare the graph shown in Fig 1B. MIHR, MIH receptor. (XLSX) Click here for additional data file.

The mark [7] stands for this setting: 100 nM WPRPamide or 4 mM Br-cAMP.

In the case of `Nc1ncnc2c1nc(Br)n2[C@@H]1O[C@@H]2COP(=O)(O)O[C@H]2[C@H]1O` [Br-cAMP, bromoadenosine 3′,5′-cyclic monophosphate, reference compound], in experiment [1], the “oocyte maturation and spawning of MIHR mutant gonads, Br-cAMP treatment” value was “rescued meiotic maturation and spawning; also recorded: rescued the phenotype of MIHR mutant gonads, efficiently triggering oocyte maturation and spawning; also recorded: provoked oocyte maturation and spawning”. For the same compound, the hydrozoan oocyte maturation entry in experiment [2] is recorded as “induces hydrozoan oocyte maturation”. Further, in experiment [3] (setting [7]), the “maturation of isolated WT oocytes” value was “triggered maturation of WT oocytes” and the “time to visible GVBD, isolated WT oocytes” value is 20 to 30 min. In experiment [3] (cAMP (4mM BrcAMP), WT, mean of 3 replicates, Sdev 14.23), the “Percentage of Oocyte maturation, Mean” value amounted to 84.33. Besides, the “maturation of isolated MIHR mutant oocytes, Br-cAMP” value in experiment [4] (4 mM Br-cAMP) was “promoted maturation of isolated fully grown MIHR mutant oocytes; also recorded: only Br-cAMP induced maturation of MIHR KO oocytes”. In experiment [4] (cAMP (4mM BrcAMP), MIHR KO, mean of 3 replicates, Sdev 6.00), the “Percentage of Oocyte maturation, Mean” value is 89.91.

Take `N=C(N)NCCC[C@H](NC(=O)[C@@H]1CCCN1C(=O)[C@@H](N)CCCNC(=N)N)C(=O)N[C@@H](Cc1ccc(O)cc1)C(N)=O` [RPRYa] (H-RPRY-NH2; N-terminus assumed): the EC50 in experiment [5] (dataset/experiment 1) was determined as 0.0577 µM. In addition, the EC50 in experiment [5] (dataset/experiment 2) was found to be 0.164 µM. In addition, in experiment [5] (first dataset), the HillSlope is 1.301, the LogEC50 is -7.239, the Bottom worked out at 997.1 and the Span is reported as 60319. In experiment [5] (first dataset), the Top is 61316. Moreover, in experiment [5], the “Bottom (best-fit value)” value was 5.512, the “HillSlope (best-fit value)” value amounted to 1.159, the “LogEC50 (best-fit value)” value was -6.887 and the “Span (best-fit value)” value came to 94.5. Besides, in experiment [5] (second dataset), the HillSlope was 1.165, the LogEC50 is on record as -6.785, the Bottom was 2011 and the Span stood at 27358. Moreover, the Top in experiment [5] (second dataset) is listed as 29369. Further, in experiment [5] (three independent dose–response experiments), the “EC50 / relative activity on MIHR” value is “highest activity”. In experiment [6], the “Normalised response (to positive control), mean” value stood at 0.39.

Turning to `C[C@H](NC(=O)[C@H](CCCNC(=N)N)NC(=O)[C@@H]1CCCN1C(=O)[C@@H](N)Cc1c[nH]c2ccccc12)C(N)=O` [WPRAa] (H-WPRA-NH2; N-terminus assumed), in experiment [5] (dataset/experiment 1), the EC50 came to 0.14 µM. The EC50 in experiment [5] (dataset/experiment 2) was 0.94 µM. Besides, in experiment [5] (first dataset), the HillSlope worked out at 1.505, the LogEC50 is -6.854, the Bottom is 1277 and the Span is 50384. In addition, the Top in experiment [5] (first dataset) turned out to be 51660. In experiment [5], the “Bottom (best-fit value)” value stood at 12.04, the “HillSlope (best-fit value)” value is listed as 1.48, the “LogEC50 (best-fit value)” value is listed as -6.272 and the “Span (best-fit value)” value is 87.97. For the same compound, in experiment [5] (second dataset), the HillSlope was determined as 1.06, the LogEC50 was -6.027, the Bottom is on record as 2165 and the Span is listed as 21649. For the same compound, in experiment [5] (second dataset), the Top came to 23814. Also, the “Normalised response (to positive control), mean” value in experiment [6] was determined as 0.2465.

The values are drawn from publication PMC7053711, “A G protein–coupled receptor mediates neuropeptide-induced oocyte maturation in the jellyfish Clytia” (PLoS Biology, 2020).
